{
  "source": "patent US12370176B2",
  "about": "“Methods of use for KV7 channel activators” (Biohaven Therapeutics Ltd., priority 2019, dated 2025)",
  "key": {"KCNQ2 W236L": {"target": "T1, KCNQ2 W236L (Homo sapiens, UniProt O43526, W236L)", "T1 construct": "expressed in transfected cells; host or cells: CHO cells", "experiment": "Whole cell voltage-clamp, KCNQ2 W236L channels in CHO cells", "type": "cell-based", "text": "(§1) Four highly recurrent KCNQ2-EE missense variants (FIG. 3), R210H (located in S4 of the voltage-sensor), T274M (located in the pore helix), A294V (located at the border of the pore loop and S6), and R581Q/L (located in the intracellular helix C), were introduced into KCNQ2 cDNA by QuikChange site-directed mutagenesis. R210H is in S4 of the voltage-sensor, T274M is in the pore helix, A294V is at the border of the pore loop and S6, and R581Q is in the intracellular helix C. Using lipid-mediated transfection, plasmids including the pathogenic variants were co-expressed with wildtype KCNQ2 or KCNQ2 and KCNQ3 subunits in Chinese hamster ovary (CHO) cells. The KCNQ2 S5 helix mutation W236L, which abolishes EZO modulation, was used to characterize Compound A binding. Whole cell voltage-clamp protocols were used to measure gating and conductance of wildtype channels and mutated subunit containing channels, before, during and after Compound A application via focal pipette perfusion."}, "[1]": {"target": "T2, KCNQ2 homomers (Kv7.2 homomers) (Homo sapiens, UniProt O43526)", "T2 construct": "expressed in transfected cells; host or cells: CHO cells", "experiment": "Whole cell voltage-clamp, wildtype KCNQ2 homomers expressed in CHO cells", "type": "cell-based", "details": "10.0 μM ezogabine; FIG. 11", "experimental": "Biological Assay Methods—Using lipid mediated transfection, plasmids including only wildtype (wt) KCNQ2, only wt KCNQ3, or both wt KCNQ2 and wt KCNQ3 subunits were expressed in Chinese hamster ovary (CHO) cells. Whole cell voltage-clamp protocols were used to measure gating and conductance density of wt channels before, during and after test compound application via focal pipette perfusion. The half-activating voltage (V1/2) was determined by Boltzmann fits of the conductance-voltage (G/V) curves.\nas §1, with “Whole cell voltage-clamp protocols were used to measure gating and conductance of wildtype channels and mutated subunit containing channels, before, during and after Compound A application via focal pipette perfusion.” left out"}},
  "data": [
    {"smiles": "CCOC(=O)Nc1ccc(NCc2ccc(F)cc2)cc1N", "note": "[EZO, ezogabine]", "values": [
      {"measurement": "current density", "setting": "KCNQ2 W236L; W236L channels, 10.0 μM ezogabine, FIG. 14", "value": "did not affect"},
      {"measurement": "dependence of KCNQ2 homomer activation on W236", "setting": "KCNQ2 W236L; wildtype KCNQ2 versus W236L", "value": "requires W236, like EZO"},
      {"measurement": "current density", "setting": "[1]", "value": "increased"}
    ]}
  ]
}
